Data taken from ChEMBL document CHEMBL1649524, “Resistance selection studies comparing the activity of razupenem (PTZ601) to vancomycin and linezolid against eight methicillin-resistant and two methicillin-susceptible Staphylococcus aureus strains” (2009).
In brackets after ≈: the same amount, converted by molar mass.

Experiments:
Type in all cases: functional
[1] = test system: Staphylococcus aureus; experiment: Antimicrobial activity against methicillin-susceptible Staphylococcus aureus 540 measured on day 10 by macrodilution method; settings: Staphylococcus aureus, 540, 240 h
[2] = test system: Staphylococcus aureus; experiment: Antimicrobial activity against vancomycin-intermediate Staphylococcus aureus 1287 measured on day 45 by macrodilution method
[3] = test system: Staphylococcus aureus; experiment: Antimicrobial activity against heterogeneous vancomycin-intermediate Staphylococcus aureus 168 measured on day 5 by macrodilution method; settings: Staphylococcus aureus, 168, 120 h
[4] = test system: Staphylococcus aureus; experiment: Antimicrobial activity against heterogeneous vancomycin-intermediate Staphylococcus aureus 168 by macrodilution method
[5] = test system: Staphylococcus aureus; experiment: Antimicrobial activity against methicillin-susceptible Staphylococcus aureus 540 measured on day 50 by macrodilution method
[6] = test system: Staphylococcus aureus; experiment: Antimicrobial activity against methicillin-susceptible Staphylococcus aureus 540 measured on day 45 by macrodilution method
[7] = test system: Staphylococcus aureus; experiment: Antimicrobial activity against vancomycin-intermediate Staphylococcus aureus 555 measured on day 45 by macrodilution method
[8] = test system: Staphylococcus aureus; experiment: Antimicrobial activity against methicillin-susceptible Staphylococcus aureus 543 measured on day 35 by macrodilution method
[9] = test system: Staphylococcus aureus; experiment: Antimicrobial activity against vancomycin-resistant Staphylococcus aureus 509 measured on day 40 by macrodilution method
[10] = test system: Staphylococcus aureus; experiment: Antimicrobial activity against vancomycin-intermediate Staphylococcus aureus 555 measured on day 20 by macrodilution method; settings: Staphylococcus aureus, 555, 480 h
[11] = test system: Staphylococcus aureus; experiment: Antimicrobial activity against vancomycin-resistant Staphylococcus aureus 509 measured on day 35 by macrodilution method
[12] = test system: Staphylococcus aureus; experiment: Antimicrobial activity against heterogeneous vancomycin-intermediate Staphylococcus aureus 168 measured on day 45 by macrodilution method
[13] = test system: Staphylococcus aureus; experiment: Antimicrobial activity against vancomycin-intermediate Staphylococcus aureus 555 measured after 10 antibiotic-free subculturing by macrodilution method
[14] = test system: Staphylococcus aureus; experiment: Antimicrobial activity against heterogeneous vancomycin-intermediate Staphylococcus aureus 168 measured on day 30 by macrodilution method
[15] = test system: Staphylococcus aureus; experiment: Antimicrobial activity against vancomycin-intermediate Staphylococcus aureus 1287 measured on day 10 by macrodilution method; settings: Staphylococcus aureus, 1287, 240 h
[16] = test system: Staphylococcus aureus; experiment: Antimicrobial activity against vancomycin-resistant Staphylococcus aureus 509 measured on day 25 by macrodilution method; settings: Staphylococcus aureus, 509, 600 h
[17] = test system: Staphylococcus aureus; experiment: Antimicrobial activity against methicillin-resistant Staphylococcus aureus 547 measured on day 50 by macrodilution method
[18] = test system: Staphylococcus aureus; experiment: Antimicrobial activity against vancomycin-resistant Staphylococcus aureus 509 measured on day 15 by macrodilution method; settings: Staphylococcus aureus, 509, 360 h
[19] = test system: Staphylococcus aureus; experiment: Antimicrobial activity against vancomycin-resistant Staphylococcus aureus 509 measured after 10 antibiotic-free subculturing by macrodilution method
[20] = test system: Staphylococcus aureus; experiment: Antimicrobial activity against vancomycin-intermediate Staphylococcus aureus 1287 by macrodilution method
[21] = test system: Staphylococcus aureus; experiment: Antimicrobial activity against methicillin-susceptible Staphylococcus aureus 543 measured on day 20 by macrodilution method; settings: Staphylococcus aureus, 543, 480 h
[22] = test system: Staphylococcus aureus; experiment: Antimicrobial activity against vancomycin-resistant Staphylococcus aureus 509 measured on day 10 by macrodilution method; settings: Staphylococcus aureus, 509, 240 h
[23] = test system: Staphylococcus aureus; experiment: Antimicrobial activity against methicillin-susceptible Staphylococcus aureus 540 measured on day 20 by macrodilution method; settings: Staphylococcus aureus, 540, 480 h
[24] = test system: Staphylococcus aureus; experiment: Antimicrobial activity against methicillin-resistant Staphylococcus aureus 525 measured on day 5 by macrodilution method; settings: Staphylococcus aureus, 525, 120 h
[25] = test system: Staphylococcus aureus; experiment: Antimicrobial activity against methicillin-susceptible Staphylococcus aureus 543 by macrodilution method
[26] = test system: Staphylococcus aureus; experiment: Antimicrobial activity against vancomycin-resistant Staphylococcus aureus 509 measured on day 20 by macrodilution method; settings: Staphylococcus aureus, 509, 480 h

`C[C@H]1C=C(c2csc(SC3=C(C(=O)O)N4C(=O)[C@H]([C@@H](C)O)[C@H]4[C@H]3C)n2)CN1` [RAZUPENEM] gave an MIC [1] of 0.016 mg/L (≈ 0.0393 µM), an MIC [2] of 2 mg/L (≈ 4.91 µM) and an MIC [3] of 4 mg/L (≈ 9.82 µM). The MIC [4] was 4 mg/L (≈ 9.82 µM), the MIC [5] was 0.125 mg/L (≈ 0.307 µM) and the MIC [6] was 0.06 mg/L (≈ 0.147 µM). For the same compound, the MIC [7] was 8 mg/L (≈ 19.6 µM), the MIC [8] was 0.06 mg/L (≈ 0.147 µM) and the MIC [9] was 4 mg/L (≈ 9.82 µM). The MIC [10] was 2 mg/L (≈ 4.91 µM), the MIC [11] was 4 mg/L (≈ 9.82 µM) and the MIC [12] was 8 mg/L (≈ 19.6 µM). It also gave an MIC [13] of 2 mg/L (≈ 4.91 µM), an MIC [14] of 8 mg/L (≈ 19.6 µM) and an MIC [15] of 0.25 mg/L (≈ 0.613 µM). The MIC [16] was 4 mg/L (≈ 9.82 µM), the MIC [17] was 16 mg/L (≈ 39.3 µM) and the MIC [18] was 2 mg/L (≈ 4.91 µM). The MIC [19] was 1 mg/L (≈ 2.45 µM), the MIC [20] was 0.06 mg/L (≈ 0.147 µM) and the MIC [21] was 0.03 mg/L (≈ 0.0736 µM). The MIC [22] was 2 mg/L (≈ 4.91 µM), the MIC [23] was 0.03 mg/L (≈ 0.0736 µM) and the MIC [24] was 2 mg/L (≈ 4.91 µM). For the same compound, the MIC [25] was 0.016 mg/L (≈ 0.0393 µM) and the MIC [26] was 4 mg/L (≈ 9.82 µM).
